Data: publication PMC10056899, “Neuroprotective and Antiherpetic Properties of Polyphenolic Compounds from Maackia amurensis Heartwood” (Molecules, 2023)

Assays:
[1] = DPPH radical scavenging assay; conditions: 20 min; for IC50: read-out: DPPH Scavenging Effect IC50
Protocol: The DPPH (2,2-diphenyl-1-picrylhydrazyl) scavenging effect of polyphenolic compounds 1-6 from M. amurensis heartwood was evaluated as described previously in [40]. Stilbenes were added to DPPH solution in MeOH (10^−4 M) at a concentration range from 1 to 34 µM. The mixture was kept in the dark at room temperature for 20 min. Then, we measured the absorbance at 517 nm using a Shimadzu UV 1240 spectrophotometer (Shimadzu, Kyoto, Japan). The DPPH radical-scavenging effect (%) of the stilbenes was calculated using Equation (1): (1) DPPH scavenging effect, %=A0−Ax/A0×100, where: • A0 is the absorbance of DPPH solution without polyphenolic compounds (blank sample); • Ax is the absorbance of DPPH solution in the presence of different concentrations of polyphenolic compounds.
Quercetin and ascorbic acid were used as reference compounds. All experiments were performed in triplicate. The half maximal inhibitory concentration (IC50) for polyphenolic compounds was calculated by plotting the DPPH scavenging effect (%) against the concentrations of polyphenolic compounds. IC50 values are given as the mean ± SEM.

HSV-1 = test: Anti-HSV-1 activity, HSV-1 DNA level by real-time PCR (RT-PCR); type: cell-based, HSV-1 strain L2; conditions: 5 µg/mL, simultaneous treatment, 48 h; for 1, 4 and Maxar given on average
Protocol: The anti-HSV-1 activity of the polyphenolic compounds from M. amurensis was also studied using the real-time PCR (RT-PCR) technique (Figure 5 and Table S69, Supplementary Data). Vero cells were simultaneously infected with 100 TCD50/mL HSV-1 and treated with polyphenolic compounds 1–6 at concentrations of 50 and 5 μg/mL. After 48 h of cell incubation, viral DNA was extracted from the supernatants, and the relative level of HSV-1 DNA was determined using RT-PCR. The effect of stilbenes on the relative level of viral DNA was assessed by 2^−ΔCt method and reported as fold reduction relative to virus control, to which the value of 1.0 was assigned.
For the viral DNA extraction assay, Vero cells grown in 96-well plates were infected with HSV-1 and simultaneously treated with polyphenolic compounds and incubated at 37 °C in a CO2-incubator for 48 h. After incubation, the culture media and the cells scraped from the plate were transferred to centrifuge tubes. The cell debris was removed by centrifugation at 300× g for 10 min. Then, supernatant was collected and kept at −20 °C. The HSV-1 DNA was extracted from supernatant by using the AmpliSens® DNA-sorb-AM (K1-12-100-CE) nucleic acid extraction kit (Moscow, Russia) according to the manufacturer′s instructions. […]
The DNA HSV was detected in the obtained DNA samples using the AmpliSens® HSV I, II-FRT-100F PCR kit (Moscow, Russia) on a real-time PCR instrument Rotor-Gene Q (Qiagen, Hilden, Nordrhein-Westfalen, Germany) according to the manufacturer′s instructions. […] In the real-time PCR, the amplified product is detected with the use of fluorescent dyes. […] The threshold cycle number, Ct, was measured as the PCR cycle, where the amount of amplified target reached the threshold value. The reduction in the HSV-1 DNA levels in culture supernatants was assessed by the change in the threshold cycle (ΔCt) (Equation (4)):(4) ΔCt=Cttv−Ctcv where: • Cttv is the average Ct value for the infected samples after treatment with polyphenolic compounds; • Ctcv corresponds to the average Ct value for the virus control. […]

[2] = tested on: PQ-treated Neuro-2a cells; test: Mitochondrial membrane potential in PQ-treated cells (TMRM); type: cell-based, murine; conditions: 10 μM
Protocol: […] Then, we added PQ (500 μM) and kept the cell suspension in a CO2-incubator for 1 h. Cells incubated without PQ and stilbenes and with PQ only were used as positive and negative control, respectively. We added the tetramethylrhodamine methyl (TMRM) (Sigma-Aldrich, St. Louis, MO, USA) solution (500 nM) to each well and kept the cells for 30 min in a CO2-incubator at 37 °C. The intensity of fluorescence was measured with a PHERAstar […] reader (BMG Labtech, Ortenberg, Germany) at λex = 540 nm and λem = 590 nm. We processed the data by MARS Data Analysis v. 3.01R2 (BMG Labtech, Ortenberg, Germany) and presented the results as percentages of the positive control value.

Compound | DPPH Scavenging Effect IC50 [1] | IC50 [1] | Reduction of relative level of HSV-1 DNA relative to virus control (HSV-1) | Increase of mitochondrial membrane potential compared to PQ-treated cells [2]
COc1ccc([C@@H]2COc3cc(O)ccc3[C@H]2c2c(O)cc(O)cc2/C=C/c2ccc(O)c(O)c2)c(O)c1 [Compound 1] | 2.25 ± 0.25 µg | 4.3 ± 0.5 µM | ~1.3 log10 | 
Oc1ccc(/C=C/c2cc(O)cc3c2[C@H](c2cc(O)cc(O)c2)[C@@H](c2ccc(O)c(O)c2)O3)cc1 [Compound 4, scirpusin A] | 1.50 ± 0.19 µg | 3.2 ± 0.4 µM | ~1.3 log10 | 26%
